A short description of data set [1]: Area under the curve determination of plasma levels in rats (rrAUC). In kind it is in vivo. Particulars: rat, oral 10 mg/kg.
In data set [2] the test system is TNF-α production in LPS-stimulated human whole blood. The experiment in a line: Inhibition of TNF-α production from human whole blood (hWBA). In kind it is cell-based. Particulars: LPS-stimulated human whole blood, read-out: hWBA.
The mark [3] stands for this setting: plasma 0.5-6 h post-dosing, read-out: RR AUC.
[4] abbreviates: plasma 0.5-6 h, read-out: RR AUC (nM · h), rapid rat AUC (rrAUC).
Where [5] appears, read: IC50 for inhibition of TNF-α production.
Where [6] appears, read: Homo sapiens, IC50 for TNF-α production.
Where [7] appears, read: Homo sapiens, IC50 for inhibition of TNF-α production.

Among the data in US8541572B2 are AUC and IC50 values, retold here.

The structures appear in SMILES notation. Where two headings read alike, the source gives them in different places.

As a reminder, the AUC is concentration integrated over time.

Take `COc1ccc2c(c1F)C(=O)N(C[C@@]1(C#Cc3cncc(F)c3)NC(=O)NC1=O)C2` [Compound 1310]: the AUC in data set [1] (setting [3]) was 1.77 µM·h.
As to `COc1ccc2c(c1F)C(=O)N(C[C@@]1(C#Cc3cccnc3)NC(=O)NC1=O)C2` [Compound 2267], the IC50 in data set [2] (IC50 for TNF-α production) worked out at 134 nM. In addition, the AUC in data set [1] (setting [4]) stood at 2.44 µM·h.
Regarding `COc1ccc2c(c1)C(=O)N(C[C@@]1(C#Cc3nc(N4C[C@H](O)CC4=O)ccc3OC)NC(=O)NC1=O)C2` [Compound 1503], the AUC in data set [1] (setting [3]) was 0.035 µM·h.
The same measure, in the same setting: then `COc1ccc2c(c1)C(=O)N(C[C@@]1(C#Cc3ccc4c(c3)c(N)nn4C)NC(=O)NC1=O)C2` [Compound 746], with 0.082 µM·h.
Consider `COc1ccc2c(c1Cl)C(=O)N(CC1(C#Cc3cccnc3)NC(=O)NC1=O)C2` (stereo not shown) [Compound 2247], for which, in data set [2] (setting [5]), the IC50 came to 1000 nM. In addition, the exposure (AUC) in data set [1] (setting [3]) came out at 0.38 µM·h.
Regarding `COc1ccc2c(c1F)C(=O)N(C[C@@]1(C#Cc3ccc(C4(O)CCNCC4)cc3)NC(=O)NC1=O)C2` [Compound 1701], in data set [1] (setting [3]), the AUC worked out at 0.041 µM·h.
As to `COc1ccc2c(c1)C(=O)N(C[C@@]1(C#Cc3cccnc3-c3cnn(C)c3)NC(=O)NC1=O)C2` [Compound 2263], the IC50 in data set [2] (IC50 for TNF-α production) was 2220 nM. For the same molecule, in data set [1] (setting [4]), the AUC was found to be 0.187 µM·h.
As for `COc1ccc2c(c1)C(=O)N(C[C@@]1(C#Cc3ccc([C@H]4CCC(=O)N4)cc3)NC(=O)NC1=O)C2` [Compound 2259], the AUC in data set [1] (setting [4]) turned out to be 0.126 µM·h.
In the case of `COc1ccc2c(c1)C(=O)N(C[C@@]1(C#Cc3ccc(C(N)C(F)(F)F)cc3)NC(=O)NC1=O)C2` (stereo partly shown) [Compound 300], the AUC in data set [1] (setting [3]) was 2.6 µM·h.
The same measure, in the same setting: then `COc1ccc2c(c1)C(=O)N(C[C@@]1(C#Cc3ccc(N4C(=O)CCC4C(=O)NC4CC4)cc3)NC(=O)NC1=O)C2` (stereo partly shown) [Compound 1902], with 0.025 µM·h; and `COc1ccc2c(c1)C(=O)N(C[C@@]1(C#Cc3cc(Cl)cnc3N)NC(=O)NC1=O)C2` [Compound 2248], with 4.04 µM·h.
Turning to `CON=C(c1ccc(C#C[C@]2(CN3Cc4ccc(OC)cc4C3=O)NC(=O)NC2=O)cc1)N1CCOCC1` [Compound 932], in data set [1] (setting [4]), the AUC was 3.17 µM·h.
On to `COc1ccc2c(c1)C(=O)N(C[C@@]1(C#Cc3ccc(F)c(C(O)(O)C(F)(F)F)c3)NC(=O)NC1=O)C2` [Compound 2251], for which, in data set [1] (setting [4]), the exposure (AUC) was determined as 0.171 µM·h.
As to `COc1ccc2c(c1)C(=O)N(C[C@@]1(C#Cc3ccc4c(c3)CN(C)C(=O)N4)NC(=O)NC1=O)C2` [Compound 306], in data set [1] (setting [3]), the AUC was determined as 0.012 µM·h.
Same read-out and setting: then `COc1ccc2c(c1)C(=O)N(C[C@@]1(C#Cc3ccc(-c4cc(N)n(C)n4)cc3)NC(=O)NC1=O)C2` [Compound 709], with 0.357 µM·h.
Same read-out and setting: then `COc1ccc2c(c1F)C(=O)N(C[C@@]1(C#Cc3ccc(C4(C)NC(=O)NC4=O)c(F)c3)NC(=O)NC1=O)C2` (stereo partly shown) [Compound 1302], with 5.64 µM·h.
For `COc1ccc2c(c1)C(=O)N(C[C@@]1(C#Cc3ccc4c(c3)CC[C@]43NC(=O)NC3=O)NC(=O)NC1=O)C2` [Compound 2313], the exposure (AUC) in data set [1] (setting [4]) amounted to 0.53 µM·h.
`COc1ccc2c(c1)C(=O)N(C[C@@]1(C#Cc3ccc4c(N)nn(C)c4c3)NC(=O)NC1=O)C2` [Compound 718]: the exposure (AUC) in data set [1] (setting [3]) came to 0.012 µM·h.
Consider `COc1ccc2c(c1)C(=O)N(C[C@@]1(C#Cc3ccc(-c4cnn(C)c4)nc3)NC(=O)NC1=O)C2` [Compound 2269], for which the AUC in data set [1] (setting [4]) came to 0.924 µM·h.
Regarding `COc1ccc2c(c1)C(=O)N(C[C@@]1(C#Cc3ccc(-c4cn[nH]c4)nc3)NC(=O)NC1=O)C2` [Compound 2292], the IC50 in data set [2] (IC50 for TNF-α production) is 372 nM.
In the case of `COc1ccc2c(c1)C(=O)N(C[C@]1(C#Cc3ccc(C(=O)O)s3)NC(=O)NC1=O)C2` [Compound 905], the IC50 in data set [2] (IC50 for TNF-α production) stood at 10000 nM.
`COc1ccc2c(c1)C(=O)N(C[C@@]1(C#Cc3nc(-c4ccc(N5CCNCC5)nc4)ccc3OC)NC(=O)NC1=O)C2` [Compound 1511]: the IC50 in data set [2] (setting [5]) worked out at 2050 nM.
The same measure, in the same setting: then `COc1ccc2c(c1F)C(=O)N(C[C@@]1(C#Cc3ccc(-c4nc(-c5cnn(C)c5)ccc4OC(=O)C(C)(C)C)c(F)c3)NC(=O)NC1=O)C2` [Compound 1006], with 68.5 nM; and `COc1ccc2c(c1F)C(=O)N(C[C@@]1(C#Cc3cncc(NC(=O)C4CCN(C)CC4)c3)NC(=O)NC1=O)C2` [Compound 1907], with 86 nM; and `COc1ccc2c(c1)C(=O)N(C[C@@]1(C#Cc3ccc4c(c3)c(N)nn4CCN(C)C)NC(=O)NC1=O)C2` [Compound 705], with 101 nM.
On the same count and under the same terms, then `COc1ccc2c(c1)C(=O)N(C[C@@]1(C#Cc3nc(N4CC[C@H](O)C4=O)ccc3OC)NC(=O)NC1=O)C2` [Compound 1504], with 3590 nM; and `CCN1CCN(C(=O)C2CCC(=O)N2c2ccc(OC)c(C#C[C@]3(CN4Cc5ccc(OC)cc5C4=O)NC(=O)NC3=O)n2)CC1` (stereo partly shown) [Compound 1917], with 3360 nM.
With `COc1ccc2c(c1)C(=O)N(CC1(C#Cc3cccnc3NCCN(C)C)NC(=O)NC1=O)C2` (stereo not shown) [Compound 2286], in data set [2] (setting [6]), the IC50 turned out to be 2000 nM.
Take `COc1ccc2c(c1)C(=O)N(C[C@@]1(C#Cc3ccc4c(-c5ccncc5)n[nH]c4c3)NC(=O)NC1=O)C2` [Compound 734]: the IC50 in data set [2] (setting [5]) came out at 1010 nM.
The same measure, in the same setting: then `CCN1CCN(C(=O)c2ccc(C#C[C@]3(CN4Cc5ccc(OC)c(F)c5C4=O)NC(=O)NC3=O)cc2)CC1` [Compound 964], with 308 nM; and `COc1ccc2c(c1)C(=O)N(C[C@@]1(C#Cc3ccc(-c4nnc[nH]4)cc3OC)NC(=O)NC1=O)C2` [Compound 2223], with 131 nM.
On the same count and under the same terms, then `COc1ccc2c(c1F)C(=O)N(C[C@@]1(C#Cc3ccc(-c4ncccc4O)cc3)NC(=O)NC1=O)C2` [Compound 1010], with 96 nM.
Regarding `COc1ccc2c(c1)C(=O)N(C[C@@]1(C#Cc3cncc(C(=O)NN)c3)NC(=O)NC1=O)C2` [Compound 2255], in data set [2] (setting [6]), the IC50 worked out at 432 nM.
For the molecule `COc1ccc2c(c1)C(=O)N(C[C@@]1(C#Cc3ccc(-n4cn[nH]c4=O)cc3)NC(=O)NC1=O)C2` [Compound 1914], in data set [2] (setting [7]), the IC50 was determined as 538 nM.
Turning to `COc1ccc2c(c1)C(=O)N(C[C@@]1(C#Cc3ccc(CC4CCN(C)CC4)nc3)NC(=O)NC1=O)C2` [Compound 739], the IC50 in data set [2] (setting [5]) came to 195 nM.
Still for that read-out and setting: then `COc1ccc2c(c1)C(=O)N(C[C@@]1(C#Cc3ccc(-c4nnc(N)o4)cc3)NC(=O)NC1=O)C2` [Compound 1919], with 244 nM; and `COc1ccc2c(c1)C(=O)N(C[C@@]1(C#Cc3ccc(-c4nc(-c5ccncc5)ccc4O)cc3)NC(=O)NC1=O)C2` [Compound 970], with 65 nM; and `CCN1CCN(Cc2ccc(C#C[C@]3(CN4Cc5ccc(OC)c(F)c5C4=O)NC(=O)NC3=O)cc2F)CC1` [Compound 983], with 250 nM.
With `COc1ccc2c(c1)C(=O)N(C[C@@]1(C#Cc3ccc4c(c3)c(O)nn4C)NC(=O)NC1=O)C2` [Compound 712], the IC50 in data set [2] (setting [5]) was found to be 1530 nM.
Take `COc1ccc2c(c1)C(=O)N(C[C@@]1(C#Cc3ccc(-c4noc(C(C)C)n4)cc3)NC(=O)NC1=O)C2` [Compound 1505]: the AUC in data set [1] (setting [3]) came out at 0.243 µM·h.
`COc1ccc2c(c1)C(=O)N(C[C@@]1(C#Cc3ccc(-c4nc(-c5cccnc5)ccc4OC(C)=O)cc3)NC(=O)NC1=O)C2` [Compound 975]: the IC50 in data set [2] (setting [5]) is 61.6 nM.
Regarding `COc1ccc2c(c1)C(=O)N(C[C@@]1(C#Cc3ccc(-c4cnccc4OC)nc3)NC(=O)NC1=O)C2` [Compound 1105], the IC50 in data set [2] (setting [7]) was 5380 nM.
Turning to `COc1ccc2c(c1)C(=O)N(C[C@@]1(C#Cc3cncc(-c4noc(C(N)=O)n4)c3)NC(=O)NC1=O)C2` [Compound 2254], the IC50 in data set [2] (IC50 for TNF-α production) is 713 nM.
For the molecule `COc1ccc2c(c1)C(=O)N(C[C@@]1(C#Cc3cnc(C)nc3O)NC(=O)NC1=O)C2` [Compound 2231], the IC50 in data set [2] (setting [7]) stood at 1130 nM.
Consider `COc1ccc2c(c1F)C(=O)N(C[C@@]1(C#Cc3ccc(-c4cccc(N5CCN(C6CCCCC6)CC5)n4)c(F)c3)NC(=O)NC1=O)C2` [Compound 994], for which the IC50 in data set [2] (setting [7]) was 2430 nM.
Still for that read-out and setting: then `COc1ccc2c(c1F)C(=O)N(C[C@]1(C#Cc3ccc(CN4CCN(C5CCCCC5)CC4)cc3)NC(=O)NC1=O)C2` [Compound 985], with 100000 nM.
Consider `COc1ccc2c(c1)C(=O)N(C[C@@]1(C#Cc3ccc4oc(C5(C)NC(=O)NC5=O)c(C)c4c3)NC(=O)NC1=O)C2` (stereo partly shown) [Compound 910], for which the IC50 in data set [2] (IC50 for TNF-α production) was determined as 545 nM.
On to `COc1ccc2c(c1)C(=O)N(C[C@@]1(C#Cc3ccc4c(c3)CC[C@@]43NC(=O)NC3=O)NC(=O)NC1=O)C2` [Compound 2314], for which the AUC in data set [1] (setting [4]) stood at 0.218 µM·h.
For the molecule `COc1ccc2c(c1)C(=O)N(C[C@@]1(C#Cc3ccc(C(=O)N4CCN(C5CC5)CC4)cc3)NC(=O)NC1=O)C2` [Compound 961], the IC50 in data set [2] (setting [5]) amounted to 1160 nM.
Same read-out and setting: then `COc1ccc2c(c1)C(=O)N(C[C@@]1(C#Cc3nc(N4C(=O)CCC4C)ccc3OC)NC(=O)NC1=O)C2` (stereo partly shown) [Compound 1506], with 9540 nM.
In the case of `COc1ccc2c(c1)C(=O)N(C[C@@]1(C#Cc3ccc(C(=NO)N4CCN(C)CC4)cc3)NC(=O)NC1=O)C2` [Compound 943], the IC50 in data set [2] (setting [6]) was 65 nM.
As to `COc1ccc2c(c1)C(=O)N(CC1(C#Cc3cnc(N4CCC5(CC4)NC(=O)NC5=O)nc3N)NC(=O)NC1=O)C2` (stereo not shown) [Compound 2310], in data set [2] (IC50 for TNF-α production), the IC50 came out at 557 nM.
Consider `COc1ccc2c(c1)C(=O)N(C[C@@]1(C#Cc3ccc(CCN)cc3)NC(=O)NC1=O)C2` [Compound 2202], for which the IC50 in data set [2] (setting [5]) stood at 219 nM.
`COc1ccc2c(c1)C(=O)N(C[C@@]1(C#Cc3ccc(C4(C)NC(=O)NC4=O)s3)NC(=O)NC1=O)C2` (stereo partly shown) [Compound 907]: the IC50 in data set [2] (IC50 for TNF-α production) turned out to be 208 nM.
For the molecule `CCN1CCN(Cc2ccc(C#C[C@]3(CN4Cc5ccc(OC)cc5C4=O)NC(=O)NC3=O)cn2)CC1` [Compound 977], in data set [2] (setting [5]), the IC50 was found to be 782 nM.
On to `COC(=O)C(c1ccc(C#C[C@]2(CN3Cc4ccc(OC)cc4C3=O)NC(=O)NC2=O)cc1)N1CCCNCC1` (stereo partly shown) [Compound 2271], for which the IC50 in data set [2] (IC50 for TNF-α production) is 566 nM.
With `COc1ccc2c(c1)C(=O)N(C[C@@]1(C#Cc3ccc(C(=NO)N4CCCN(C)CC4)cc3)NC(=O)NC1=O)C2` [Compound 913], the IC50 in data set [2] (IC50 for TNF-α production) amounted to 45 nM.
On the same count and under the same terms, then `COc1ccc2c(c1)C(=O)N(C[C@@]1(C#Cc3cnc(N)c(C(=O)NS(C)(=O)=O)c3)NC(=O)NC1=O)C2` [Compound 904], with 10000 nM.
